Reference: US20230295162A1 (EÖTVÖS LORÁND TUDOMÁNYEGYETEM, priority 2020, published 2023)
Read-outs that look alike come from different tables or passages of the source.

Experiments:
[1] = tested on: Detroit 562 (pharynx, carcinoma) cells; assay: Cell viability assay, CellTiter-Glo (Example 21); assay type: cell-based, human; details: 72 h treatment
How it was run: (§1)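 Seeding density per line: Panc-1 750, FaDu 1000, Detroit 562 and MDA-MB-453 1500 cells/well. Viability after treatment read by CellTiter-Glo luminescence; dose-response curves fitted by four-parameter variable-slope non-linear regression.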

[2] = tested on: MDA-MB-231 (breast, adenocarcinoma) cells; assay: Cell viability assay, CellTiter-Glo (Example 21); assay type: cell-based, human; details: 72 h treatment
How it was run: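 MDA-MB-231 breast adenocarcinoma cells were seeded at 1500 cells/well in flat-bottomed white 96 well plates (BRANDplates®, cat. no.: 781965). Following compound exposure, viability was assessed with the CellTiter-Glo® luminescent assay (Promega) following the manufacturer's protocol, and luminescence was read on a BioTek Synergy 2 Multi-Mode Reader.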

[3] = tested on: MIA PaCa-2 (pancreas, carcinoma) cells; assay: Cell viability assay, CellTiter-Glo (Example 21); assay type: cell-based, human; details: 72 h treatment
How it was run: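 MIA PaCa-2 pancreatic carcinoma cells were seeded at 1000 cells/well in flat-bottomed white 96 well plates (BRANDplates®, cat. no.: 781965) and treated with compound. Viability was then determined with the CellTiter-Glo® luminescent cell viability assay (Promega) following the manufacturer's instructions, with luminescence read on a BioTek Synergy 2 Multi-Mode Reader.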

[4] = tested on: SCC-25 (tongue, squamous cell carcinoma) cells; assay: Cell viability assay, CellTiter-Glo (Example 21); assay type: cell-based, human; details: 72 h treatment
How it was run: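 SCC-25 tongue squamous cell carcinoma cells were seeded at 1000 cells/well in flat-bottomed white 96 well plates, treated with compound, and viability was then determined with the CellTiter-Glo luminescent assay (Promega) following the manufacturer's instructions. Luminescence was read on a BioTek Synergy 2 Multi-Mode Reader.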

[5] = tested on: PC-3 (prostate, adenocarcinoma) cells; assay: Cell viability assay, CellTiter-Glo (Example 21); assay type: cell-based, human; details: 72 h treatment
How it was run: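 PC-3 prostate adenocarcinoma cells were seeded at 1000 cells/well in flat-bottomed white 96 well plates and treated with compounds. Viability was then determined with the CellTiter-Glo® luminescent assay (Promega) following the manufacturer's instructions, with luminescence read on a BioTek Synergy 2 Multi-Mode Reader.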

[6] = tested on: Panc-1 (pancreas, carcinoma) cells; assay: Cell viability assay, CellTiter-Glo (Example 21); assay type: cell-based, human; details: 72 h treatment
How it was run: as §1

[7] = tested on: EBC-1 (lung, squamous cell carcinoma) cells; assay: Cell viability assay, CellTiter-Glo (Example 21); assay type: cell-based, human; details: 72 h treatment
How it was run: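 EBC-1 lung squamous cell carcinoma cells were seeded at 1000 cells/well in flat-bottomed white 96 well plates. After compound treatment, viability was measured with the CellTiter-Glo luminescent assay following the manufacturer's instructions, and luminescence was read on a BioTek Synergy 2 Multi-Mode microplate reader.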

[8] = tested on: MDA-MB-453 (breast, carcinoma) cells; assay: Cell viability assay, CellTiter-Glo (Example 21); assay type: cell-based, human; details: 72 h treatment
How it was run: as §1

[9] = tested on: LNCaP (prostate, carcinoma) cells; assay: Cell viability assay, CellTiter-Glo (Example 21); assay type: cell-based, human; details: 72 h
How it was run: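 LNCaP prostate carcinoma cell viability was assessed with the CellTiter-Glo® luminescent assay (Promega), following the manufacturer's instructions. Cells were seeded at 1500 cells/well into flat-bottomed white 96 well plates, treated, and then luminescence was read on a BioTek Synergy 2 Multi-Mode Reader. Dose-response curves were fitted in GraphPad Prism 8.4.2 by four-parameter variable-slope non-linear regression.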

[10] = tested on: FaDu (pharynx, squamous cell carcinoma) cells; assay: Cell viability assay, CellTiter-Glo (Example 21); assay type: cell-based, human; details: 72 h treatment
How it was run: as §1

[11] = tested on: DU 145 (prostate, carcinoma) cells; assay: Cell viability assay, CellTiter-Glo (Example 21); assay type: cell-based, human; details: 72 h
How it was run: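 DU 145 cancer cell viability was assessed with the CellTiter-Glo® luminescent assay (Promega, Madison, WI, USA), following the manufacturer's instructions. Cells were seeded at 1000 cells/well in flat-bottomed white 96 well plates, and after treatment luminescence was read on a BioTek Synergy 2 Multi-Mode Reader.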

[12] = tested on: Capan-1 (pancreas, adenocarcinoma) cells; assay: Cell viability assay, CellTiter-Glo (Example 21); assay type: cell-based, human; details: 72 h treatment
How it was run: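 Capan-1 cells were seeded at 1000 cells/well in flat-bottomed white 96 well plates (BRANDplates®), with density optimized for cell size and growth rate. Following compound treatment, viability was measured with the CellTiter-Glo® luminescent assay (Promega) per the manufacturer's instructions, reading luminescence on a BioTek Synergy 2 Multi-Mode Reader.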

[13] = tested on: Fadu cell line; assay: Additional in vitro IC50 tests (Table 3); assay type: cell-based; details: Homo sapiens
How it was run: (§2)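 Cells at 1000/well, viability by CellTiter-Glo luminescence after compound treatment, as % of untreated control. IC50 from variable-slope log(inhibitor) vs response nonlinear regression.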

[14] = tested on: SCC-25 cell line; assay: Additional in vitro IC50 tests (Table 3); assay type: cell-based; details: Homo sapiens
How it was run: as §2

[15] = tested on: Detroit 562 cell line; assay: Additional in vitro IC50 tests (Table 3); assay type: cell-based; details: Homo sapiens
How it was run: as §2

[16] = tested on: EBC-1 cell line; assay: Additional in vitro IC50 tests (Table 3); assay type: cell-based; details: Homo sapiens
How it was run: as §2

[17] = tested on: H2228 cell line; assay: Additional in vitro IC50 tests (Table 3); assay type: cell-based; details: Homo sapiens, NCI-H2228
How it was run: as §2

[18] = tested on: Panc-1 human cell line; assay: Cytotoxicity on Panc-1, xCELLigence SP, IC50 after 24 h, 48 h, 72 h and 96 h (Example 22)
[19] = tested on: Panc1 pancreatic cancer cell line; assay: CellTiter-Glo IC50 (Example 19); assay type: cell-based; details: Homo sapiens, PANC-1, 72 h
How it was run: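 Cells were seeded at 1000 cells/well and kept at 37 °C, 5% CO2. After compound treatment, viability was read by CellTiter-Glo luminescence as % of untreated control. IC50 came from a non-linear log(inhibitor) vs response fit with variable slope.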

[20] = tested on: PANC-1 (human pancreatic carcinoma) cells; assay: Impedance-based viability assay (xCELLigence SP), long treatment; assay type: cell-based; details: 72 h, read-out: cytotoxicity expressed in IC50, PANC-1
Text: (Gibco®/Invitrogen Corporation, New York, NY, USA).
Data obtained from each experiment represent mathematical averages.

[N-]=[N+]=Nc1ccc(CN2C(=O)C3=C(CCN(Cc4cc(F)cc(F)c4)C3)N3CCN=C23)cc1 [I/107, 4-(4-Azidobenzyl)-7-(3,5-difluorobenzyl)-2,4,6,7,8,9-hexahydroimidazo[1,2-a]pyrido[3,4-e]pyrimidin-5(1H)-one]
Detroit 562 (pharynx, carcinoma) cell viability (% of control) ([1]; 3.7 nM): 86.6 ± 5.7 % of control | Detroit 562 (pharynx, carcinoma) cell viability (% of control) ([1]; 11.1 nM): 36.8 ± 5.1 % of control | Detroit 562 (pharynx, carcinoma) cell viability (% of control) ([1]; 100 nM): 31.4 ± 2.9 % of control | Detroit 562 (pharynx, carcinoma) cell viability (% of control) ([1]; 300 nM): 34.1 ± 6.5 % of control | MDA-MB-231 (breast, adenocarcinoma) cell viability (% of control) ([2]; 3.7 nM): 102.1 ± 3.5 % of control | MDA-MB-231 (breast, adenocarcinoma) cell viability (% of control) ([2]; 11.1 nM): 98.6 ± 0.8 % of control | MDA-MB-231 (breast, adenocarcinoma) cell viability (% of control) ([2]; 100 nM): 57.3 ± 1.8 % of control | MDA-MB-231 (breast, adenocarcinoma) cell viability (% of control) ([2]; 300 nM): 55.7 ± 0.9 % of control | MIA PaCa-2 (pancreas, carcinoma) cell viability (% of control) ([3]; 3.7 nM): 102.5 ± 5.4 % of control | MIA PaCa-2 (pancreas, carcinoma) cell viability (% of control) ([3]; 11.1 nM): 91.5 ± 6.6 % of control | MIA PaCa-2 (pancreas, carcinoma) cell viability (% of control) ([3]; 100 nM): 18.8 ± 6.2 % of control | MIA PaCa-2 (pancreas, carcinoma) cell viability (% of control) ([3]; 300 nM): 17.4 ± 7.1 % of control | SCC-25 (tongue, squamous cell carcinoma) cell viability (% of control) ([4]; 3.7 nM): 97.3 ± 3.8 % of control | SCC-25 (tongue, squamous cell carcinoma) cell viability (% of control) ([4]; 11.1 nM): 75.6 ± 6.8 % of control | SCC-25 (tongue, squamous cell carcinoma) cell viability (% of control) ([4]; 100 nM): 35.4 ± 5.7 % of control | SCC-25 (tongue, squamous cell carcinoma) cell viability (% of control) ([4]; 300 nM): 42.4 ± 5.7 % of control | PC-3 (prostate, adenocarcinoma) cell viability (% of control) ([5]; 3.7 nM): 107.1 ± 5.9 % of control | PC-3 (prostate, adenocarcinoma) cell viability (% of control) ([5]; 11.1 nM): 82.3 ± 7.0 % of control | PC-3 (prostate, adenocarcinoma) cell viability (% of control) ([5]; 100 nM): 32.7 ± 2.6 % of control | PC-3 (prostate, adenocarcinoma) cell viability (% of control) ([5]; 300 nM): 32.8 ± 4.1 % of control | Panc-1 (pancreas, carcinoma) cell viability (% of control) ([6]; 3.7 nM): 107.9 ± 11.5 % of control | Panc-1 (pancreas, carcinoma) cell viability (% of control) ([6]; 11.1 nM): 93.6 ± 8.1 % of control | Panc-1 (pancreas, carcinoma) cell viability (% of control) ([6]; 100 nM): 54.2 ± 0.6 % of control | Panc-1 (pancreas, carcinoma) cell viability (% of control) ([6]; 300 nM): 55.0 ± 3.2 % of control | EBC-1 (lung, squamous cell carcinoma) cell viability (% of control) ([7]; 3.7 nM): 99.9 ± 2.5 % of control | EBC-1 (lung, squamous cell carcinoma) cell viability (% of control) ([7]; 11.1 nM): 70.3 ± 0.9 % of control | EBC-1 (lung, squamous cell carcinoma) cell viability (% of control) ([7]; 100 nM): 23.5 ± 1.0 % of control | EBC-1 (lung, squamous cell carcinoma) cell viability (% of control) ([7]; 300 nM): 23.5 ± 2.5 % of control | MDA-MB-453 (breast, carcinoma) cell viability (% of control) ([8]; 3.7 nM): 107.2 ± 9.1 % of control | MDA-MB-453 (breast, carcinoma) cell viability (% of control) ([8]; 11.1 nM): 47.8 ± 6.2 % of control | MDA-MB-453 (breast, carcinoma) cell viability (% of control) ([8]; 100 nM): 32.3 ± 1.3 % of control | MDA-MB-453 (breast, carcinoma) cell viability (% of control) ([8]; 300 nM): 32.2 ± 1.3 % of control | LNCaP cell viability ([9]; 3.7 nM): 95.3 ± 2.3 % of control | LNCaP cell viability ([9]; 11.1 nM): 37.9 ± 3.3 % of control | LNCaP cell viability ([9]; 100 nM): 13.5 ± 0.7 % of control | LNCaP cell viability ([9]; 300 nM): 13.6 ± 0.6 % of control | FaDu (pharynx, squamous cell carcinoma) cell viability (% of control) ([10]; 3.7 nM): 98.6 ± 1.9 % of control | FaDu (pharynx, squamous cell carcinoma) cell viability (% of control) ([10]; 11.1 nM): 74.3 ± 4.2 % of control | FaDu (pharynx, squamous cell carcinoma) cell viability (% of control) ([10]; 100 nM): 24.6 ± 3.6 % of control | FaDu (pharynx, squamous cell carcinoma) cell viability (% of control) ([10]; 300 nM): 25.5 ± 4.3 % of control | DU 145 cell viability ([11]; 3.7 nM): 101.2 ± 6.5 % of control | DU 145 cell viability ([11]; 11.1 nM): 48.7 ± 1.7 % of control | DU 145 cell viability ([11]; 100 nM): 8.3 ± 2.9 % of control | DU 145 cell viability ([11]; 300 nM): 9.0 ± 2.9 % of control | Capan-1 (pancreas, adenocarcinoma) cell viability (% of control) ([12]; 3.7 nM): 103.5 ± 3.0 % of control | Capan-1 (pancreas, adenocarcinoma) cell viability (% of control) ([12]; 11.1 nM): 101.2 ± 5.2 % of control | Capan-1 (pancreas, adenocarcinoma) cell viability (% of control) ([12]; 100 nM): 37.6 ± 2.3 % of control | Capan-1 (pancreas, adenocarcinoma) cell viability (% of control) ([12]; 300 nM): 34.7 ± 2.9 % of control | IC50 [13]: 19 nM | IC50 [14]: 31 nM | IC50 [15]: 7 nM | IC50 [16]: 17 nM | IC50 [17]: 24 nM | IC50 ([18]; PANC-1, 72 h, read-out: IC50 (72 h) [nM]): 102 ± 24.4 nM | IC50 ([18]; PANC-1, 96 h, read-out: IC50 (96 h) [nM]): 49.6 ± 17 nM | IC50 [19]: 14 nM | IC50 [20]: 11 nM
